ChEMBL document CHEMBL3885861, “Open TG-GATES”

Species on record: Rattus norvegicus
Assay: Open TG-GATES - Regimen: Daily Repeat
Type: toxicity, organism-based, Sprague-Dawley
Parameters: regimen Daily Repeat, gender Male, age 6 weeks
Settings: in vivo, po, route gavage; for APTT / Bas / Eos / Fbg / Hb / Ht / Lym / MCH / MCHC / MCV / Mono / Neu / PT / Plat / RBC / Ret / WBC: tissue Blood; for KIDNEY_L / KIDNEY_R / KIDNEY_TOTAL: tissue Kidney; for LIVER: tissue Liver; for A/G / ALP / ALT / AST / BUN / CRE / Ca / Cl / DBIL / GLC / IP / K / LDH / Na / PL / RALB / TBIL / TC / TG / TP / gamma-GTP: tissue Plasma
[1] = 300 mg/kg, 72 h, dose level Middle, time 3 day
[2] = 300 mg/kg, […], dose level Middle, time 7 day
[3] = 300 mg/kg, […], dose level Middle, time 14 day
[4] = 300 mg/kg, […], dose level Middle, time 28 day
[5] = 1000 mg/kg, 72 h, dose level High, time 3 day
[6] = 1000 mg/kg, […], dose level High, time 7 day
[7] = 1000 mg/kg, […], dose level High, time 14 day
[8] = 1000 mg/kg, […], dose level High, time 28 day

## CCN1CCCC1CNC(=O)c1cc(S(N)(=O)=O)ccc1OC (centres undefined) [SULPIRIDE]
[1]
  TERMINAL_BW: 234.7 g
  APTT: 16.7 s
  Bas: 0%
  Eos: 1%
  Fbg: 278.2 mg/dL
  Hb: 13.4 g/dL
  Ht: 40.9%
  Lym: 78.8%
  MCH: 20.6 pg
  MCHC: 32.8%
  MCV: 62.7 fL
  Mono: 3.4%
  Neu: 16.2%
  PT: 13.1 s
  Plat: 118.8 x10_4/uL
  RBC: 653.4 x10_4/ul
  Ret: 6.5%
  WBC: 94.6 x10_2/uL
  KIDNEY_L: 1 g
  KIDNEY_R: 1 g
  KIDNEY_TOTAL: 2.1 g
  LIVER: 11.7 g
  A/G: 0.9
  ALP: 1582.2 IU/L
  ALT: 44 IU/L
  AST: 65.8 IU/L
  BUN: 14.6 mg/dL
  CRE: 0.2 mg/dL
  Ca: 11.1 mg/dL
  Cl: 103.2 meq/L
  DBIL: 0.01 mg/dL
  GLC: 182 mg/dL
  IP: 8 mg/dL
  K: 4.4 meq/L
  LDH: 78.2 IU/L
  Na: 139.6 meq/L
  PL: 147.8 mg/dL
  RALB: 2.7 g/dL
  TBIL: 0.056 mg/dL
  TC: 78.4 mg/dL
  TG: 92.8 mg/dL
  TP: 5.7 g/dL
  gamma-GTP: 1 IU/L
[2]
  TERMINAL_BW: 265.3 g
  APTT: 16.9 s
  Bas: 0%
  Eos: 1%
  Fbg: 297.2 mg/dL
  Hb: 13.8 g/dL
  Ht: 41.8%
  Lym: 81.8%
  MCH: 20 pg
  MCHC: 33%
  MCV: 60.4 fL
  Mono: 2.2%
  Neu: 14.4%
  PT: 13.1 s
  Plat: 123.9 x10_4/uL
  RBC: 692.4 x10_4/ul
  Ret: 4.9%
  WBC: 113 x10_2/uL
  KIDNEY_L: 1.1 g
  KIDNEY_R: 1.1 g
  KIDNEY_TOTAL: 2.1 g
  LIVER: 12.5 g
  A/G: 0.8
  ALP: 1497.6 IU/L
  ALT: 46.8 IU/L
  AST: 65.8 IU/L
  BUN: 17 mg/dL
  CRE: 0.2 mg/dL
  Ca: 11 mg/dL
  Cl: 104.2 meq/L
  DBIL: 0.01 mg/dL
  GLC: 182.2 mg/dL
  IP: 8.1 mg/dL
  K: 4.2 meq/L
  LDH: 54.4 IU/L
  Na: 141.6 meq/L
  PL: 143 mg/dL
  RALB: 2.6 g/dL
  TBIL: 0.052 mg/dL
  TC: 70.4 mg/dL
  TG: 114.4 mg/dL
  TP: 5.8 g/dL
  gamma-GTP: 1 IU/L
[3]
  TERMINAL_BW: 329.3 g
  APTT: 16.8 s
  Bas: 0.2%
  Eos: 1%
  Fbg: 295.2 mg/dL
  Hb: 14.7 g/dL
  Ht: 44.1%
  Lym: 78.4%
  MCH: 20 pg
  MCHC: 33.4%
  MCV: 60 fL
  Mono: 2.2%
  Neu: 17.2%
  PT: 13.2 s
  Plat: 121.1 x10_4/uL
  RBC: 736 x10_4/ul
  Ret: 4.1%
  WBC: 102.3 x10_2/uL
  KIDNEY_L: 1.3 g
  KIDNEY_R: 1.2 g
  KIDNEY_TOTAL: 2.5 g
  LIVER: 14.2 g
  A/G: 0.9
  ALP: 1350 IU/L
  ALT: 37.4 IU/L
  AST: 62.8 IU/L
  BUN: 16 mg/dL
  CRE: 0.2 mg/dL
  Ca: 11.1 mg/dL
  Cl: 103 meq/L
  DBIL: 0.014 mg/dL
  GLC: 188.8 mg/dL
  IP: 7.8 mg/dL
  K: 3.9 meq/L
  LDH: 50.6 IU/L
  Na: 140.6 meq/L
  PL: 145.2 mg/dL
  RALB: 2.7 g/dL
  TBIL: 0.052 mg/dL
  TC: 71.8 mg/dL
  TG: 109 mg/dL
  TP: 5.8 g/dL
  gamma-GTP: 1 IU/L
[4]
  TERMINAL_BW: 375.2 g
  APTT: 17.4 s
  Bas: 0.2%
  Eos: 1.2%
  Fbg: 265 mg/dL
  Hb: 15.8 g/dL
  Ht: 45.8%
  Lym: 76.4%
  MCH: 19.4 pg
  MCHC: 34.5%
  MCV: 56.1 fL
  Mono: 1.8%
  Neu: 20%
  PT: 13.4 s
  Plat: 114.4 x10_4/uL
  RBC: 817 x10_4/ul
  Ret: 2.1%
  WBC: 109.3 x10_2/uL
  KIDNEY_L: 1.3 g
  KIDNEY_R: 1.4 g
  KIDNEY_TOTAL: 2.7 g
  LIVER: 14 g
  A/G: 0.8
  ALP: 1073.6 IU/L
  ALT: 43.8 IU/L
  AST: 65.2 IU/L
  BUN: 17 mg/dL
  CRE: 0.2 mg/dL
  Ca: 10.6 mg/dL
  Cl: 105.2 meq/L
  DBIL: 0.006 mg/dL
  GLC: 184.4 mg/dL
  IP: 6.5 mg/dL
  K: 3.8 meq/L
  LDH: 56.2 IU/L
  Na: 142 meq/L
  PL: 125.4 mg/dL
  RALB: 2.7 g/dL
  TBIL: 0.062 mg/dL
  TC: 63.2 mg/dL
  TG: 84.4 mg/dL
  TP: 6.1 g/dL
  gamma-GTP: 1 IU/L
[5]
  TERMINAL_BW: 230.5 g
  APTT: 16.8 s
  Bas: 0%
  Eos: 1.4%
  Fbg: 274.2 mg/dL
  Hb: 14.1 g/dL
  Ht: 42.6%
  Lym: 74.8%
  MCH: 20.7 pg
  MCHC: 33.1%
  MCV: 62.5 fL
  Mono: 2.8%
  Neu: 20.6%
  PT: 13.2 s
  Plat: 128.6 x10_4/uL
  RBC: 682.6 x10_4/ul
  Ret: 4.8%
  WBC: 104.1 x10_2/uL
  KIDNEY_L: 1 g
  KIDNEY_R: 1 g
  KIDNEY_TOTAL: 2 g
  LIVER: 11.1 g
  A/G: 0.8
  ALP: 1652 IU/L
  ALT: 49.2 IU/L
  AST: 62.4 IU/L
  BUN: 16.4 mg/dL
  CRE: 0.2 mg/dL
  Ca: 11.3 mg/dL
  Cl: 103.4 meq/L
  DBIL: 0.01 mg/dL
  GLC: 174.6 mg/dL
  IP: 8.3 mg/dL
  K: 4.5 meq/L
  LDH: 73.8 IU/L
  Na: 140 meq/L
  PL: 161 mg/dL
  RALB: 2.7 g/dL
  TBIL: 0.056 mg/dL
  TC: 82.2 mg/dL
  TG: 112 mg/dL
  TP: 5.7 g/dL
  gamma-GTP: 1 IU/L
[6]
  TERMINAL_BW: 262.7 g
  APTT: 17.8 s
  Bas: 0%
  Eos: 1.2%
  Fbg: 288 mg/dL
  Hb: 14 g/dL
  Ht: 42.2%
  Lym: 76.6%
  MCH: 20.8 pg
  MCHC: 33.3%
  MCV: 62.6 fL
  Mono: 3.2%
  Neu: 18.6%
  PT: 13.3 s
  Plat: 125.3 x10_4/uL
  RBC: 673.8 x10_4/ul
  Ret: 4.7%
  WBC: 87.1 x10_2/uL
  KIDNEY_L: 1.1 g
  KIDNEY_R: 1.2 g
  KIDNEY_TOTAL: 2.3 g
  LIVER: 11.9 g
  A/G: 0.9
  ALP: 1461.2 IU/L
  ALT: 55 IU/L
  AST: 74.2 IU/L
  BUN: 16.4 mg/dL
  CRE: 0.2 mg/dL
  Ca: 11 mg/dL
  Cl: 103.2 meq/L
  DBIL: 0.006 mg/dL
  GLC: 171.6 mg/dL
  IP: 8 mg/dL
  K: 4.3 meq/L
  LDH: 62 IU/L
  Na: 141 meq/L
  PL: 146 mg/dL
  RALB: 2.7 g/dL
  TBIL: 0.05 mg/dL
  TC: 72.6 mg/dL
  TG: 94 mg/dL
  TP: 5.7 g/dL
  gamma-GTP: 1 IU/L
[7]
  TERMINAL_BW: 307.6 g
  APTT: 16.8 s
  Bas: 0.2%
  Eos: 1%
  Fbg: 271 mg/dL
  Hb: 14.9 g/dL
  Ht: 44.3%
  Lym: 72.8%
  MCH: 20.1 pg
  MCHC: 33.6%
  MCV: 59.8 fL
  Mono: 2.2%
  Neu: 23%
  PT: 13.2 s
  Plat: 114.6 x10_4/uL
  RBC: 742 x10_4/ul
  Ret: 3.8%
  WBC: 103.9 x10_2/uL
  KIDNEY_L: 1.2 g
  KIDNEY_R: 1.2 g
  KIDNEY_TOTAL: 2.3 g
  LIVER: 12.6 g
  A/G: 0.9
  ALP: 1425.6 IU/L
  ALT: 41.8 IU/L
  AST: 68.2 IU/L
  BUN: 16.8 mg/dL
  CRE: 0.2 mg/dL
  Ca: 11 mg/dL
  Cl: 102.6 meq/L
  DBIL: 0.008 mg/dL
  GLC: 181 mg/dL
  IP: 7.9 mg/dL
  K: 3.9 meq/L
  LDH: 54 IU/L
  Na: 140.6 meq/L
  PL: 148.4 mg/dL
  RALB: 2.7 g/dL
  TBIL: 0.056 mg/dL
  TC: 80.8 mg/dL
  TG: 83.4 mg/dL
  TP: 5.9 g/dL
  gamma-GTP: 1 IU/L
[8]
  TERMINAL_BW: 370.8 g
  APTT: 17.8 s
  Bas: 0%
  Eos: 1.6%
  Fbg: 278.4 mg/dL
  Hb: 15.8 g/dL
  Ht: 45.5%
  Lym: 80%
  MCH: 19.3 pg
  MCHC: 34.7%
  MCV: 55.5 fL
  Mono: 2%
  Neu: 15%
  PT: 13.3 s
  Plat: 111.2 x10_4/uL
  RBC: 818.8 x10_4/ul
  Ret: 2.5%
  WBC: 133.5 x10_2/uL
  KIDNEY_L: 1.2 g
  KIDNEY_R: 1.3 g
  KIDNEY_TOTAL: 2.5 g
  LIVER: 13.4 g
  A/G: 0.8
  ALP: 1094.8 IU/L
  ALT: 42.6 IU/L
  AST: 70.4 IU/L
  BUN: 18 mg/dL
  CRE: 0.3 mg/dL
  Ca: 10.6 mg/dL
  Cl: 103 meq/L
  DBIL: 0.012 mg/dL
  GLC: 169 mg/dL
  IP: 7.2 mg/dL
  K: 3.9 meq/L
  LDH: 55.6 IU/L
  Na: 141.8 meq/L
  PL: 136.2 mg/dL
  RALB: 2.8 g/dL
  TBIL: 0.062 mg/dL
  TC: 66.2 mg/dL
  TG: 87.2 mg/dL
  TP: 6.3 g/dL
  gamma-GTP: 1 IU/L
